Molecular target: T1, human GnRH receptor (Homo sapiens, UniProt P30968)
T1 sequence (P30968 1-328): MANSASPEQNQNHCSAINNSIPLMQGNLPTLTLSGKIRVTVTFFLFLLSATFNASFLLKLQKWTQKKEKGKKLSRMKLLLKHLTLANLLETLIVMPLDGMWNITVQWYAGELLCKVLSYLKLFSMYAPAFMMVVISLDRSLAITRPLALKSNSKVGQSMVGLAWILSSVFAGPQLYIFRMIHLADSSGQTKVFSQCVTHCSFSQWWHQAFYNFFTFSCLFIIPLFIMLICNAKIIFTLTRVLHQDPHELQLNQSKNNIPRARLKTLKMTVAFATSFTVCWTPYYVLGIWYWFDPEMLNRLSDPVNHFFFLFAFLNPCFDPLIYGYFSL
Experiment: IP-One HTRF assay with buserelin (at EC80) stimulation
Assay type: cell-based
Conditions: CHO cells stably expressing human GnRH receptor, read-out: Potency in IP-One HTRF assay, given as IC50
Summary of the method: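 CHO cells stably expressing human GnRH receptor, preincubated 1 h at 37° C with IP1-d2, were exposed to compound and buserelin at EC80 for 1 h at 37° C. After lysis with Tb-anti-IP1 antibody (1 h, 22° C), 665/620 nm HTRF ratio read; 10 concentrations, 20 μM–1 nM, duplicates, 4-parameter IC50.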

Compound	IC50 [nM]
O=C(NCc1ccccc1C(F)F)c1ccc2c(c1)C1(CCS(=O)(=O)CC1)C(C1CC1)N2S(=O)(=O)c1ccc(OC(F)F)cc1 (stereo not shown) [Example 91, 2-cyclopropyl-1-{[4-(difluoromethoxy)phenyl]sulfonyl}-N-[2-(difluoromethyl)benzyl]-1,2,2′,3′,5′,6′-hexahydrospiro[indole-3,4′-thiopyran]-5-carboxamide 1′,1′-dioxide]	5.9
COc1cccc(S(=O)(=O)N2c3ccc(C(=O)NCc4ncccc4C(F)(F)F)cc3C3(CCS(=O)(=O)CC3)C2C2CC2)c1 (single isomer, unassigned) [Example 39.1, 2-cyclopropyl-1-[(3-methoxyphenyl)sulfonyl]-N-{[3-(trifluoromethyl)pyridin-2-yl]methyl}-1,2,2′,3′,5′,6′-hexahydrospiro[indole-3,4′-thiopyran]-5-carboxamide 1′,1′-dioxide]	40
CC1N(S(=O)(=O)c2ccc(F)cc2)c2ccc(C(=O)NCc3ccccc3C#N)cc2C12CCOCC2 (stereo not shown) [Example 8, N-(2-cyanobenzyl)-1-[(4-fluorophenyl)sulfonyl]-2-methyl-1,2,2′,3′,5′,6′-hexahydrospiro[indole-3,4′-pyran]-5-carboxamide]	2510
CC1N(S(=O)(=O)c2ccc(F)cc2)c2ccc(C(=O)NCc3ncc(F)cc3Cl)cc2C12CCOCC2 (stereo not shown) [Example 5, N-[(3-chloro-5-fluoropyridin-2-yl)methyl]-1-[(4-fluorophenyl)sulfonyl]-2-methyl-1,2,2′,3′,5′,6′-hexahydrospiro[indole-3,4′-pyran]-5-carboxamide]	345
O=C(Nc1cncc(Cl)c1)c1ccc2c(c1)C1(CCS(=O)(=O)CC1)C(C1CC1)N2S(=O)(=O)c1cccc(OC(F)F)c1 (stereo not shown) [Example 88, N-(5-chloropyridin-3-yl)-2-cyclopropyl-1-{[3-(difluoromethoxy)phenyl]sulfonyl}-1,2,2′,3′,5′,6′-hexahydrospiro[indole-3,4′-thiopyran]-5-carboxamide 1′,1′-dioxide]	262
CN(C)C(=NS(=O)(=O)c1cccc(NC(=O)c2ccc3c(c2)C2(CCS(=O)(=O)CC2)C(C2CC2)N3S(=O)(=O)c2ccc(F)cc2)c1)N(C)C (single isomer, unassigned) [Example 64.2, N-(3-{[bis(dimethylamino)methylidene]sulfamoyl}phenyl)-2-cyclopropyl-1-[(4-fluorophenyl)sulfonyl]-1,2,2′,3′,5′,6′-hexahydrospiro[indole-3,4′-thiopyran]-5-carboxamide 1′,1′-dioxide]	66
N#Cc1cccc(S(=O)(=O)N2c3ccc(C(=O)NCc4ncccc4C(F)(F)F)cc3C3(CCS(=O)(=O)CC3)C2C2CC2)c1 (stereo not shown) [Example 79, 1-[(3-cyanophenyl)sulfonyl]-2-cyclopropyl-N-{[3-(trifluoromethyl)pyridin-2-yl]methyl}-1,2,2′,3′,5′,6′-hexahydrospiro[indole-3,4′-thiopyran]-5-carboxamide 1′,1′-dioxide]	64
Cc1cccnc1CNC(=O)c1ccc2c(c1)C1(CCS(=O)(=O)CC1)C(C1CC1)N2S(=O)(=O)c1ccc(F)cc1 (stereo not shown) [Example 31, 2-cyclopropyl-1-[(4-fluorophenyl)sulfonyl]-N-[(3-methylpyridin-2-yl)methyl]-1,2,2′,3′,5′,6′-hexahydrospiro[indole-3,4′-thiopyran]-5-carboxamide 1′,1′-dioxide]	503
O=C(NCc1ccccc1C(F)F)c1ccc2c(c1)C1(CCS(=O)(=O)CC1)C(C1CC1)N2S(=O)(=O)c1ccc(F)cc1 (single isomer, unassigned) [Example 68.2, 2-cyclopropyl-N-[2-(difluoromethyl)benzyl]-1-[(4-fluorophenyl)sulfonyl]-1,2,2′,3′,5′,6′-hexahydrospiro[indole-3,4′-thiopyran]-5-carboxamide 1′,1′-dioxide]	143
N#Cc1ccc(S(=O)(=O)N2c3ccc(C(=O)NCc4ncccc4Cl)cc3C3(CCS(=O)(=O)CC3)C2C2CC2)cc1 (single isomer, unassigned) [Example 70.1, N-[(3-chloropyridin-2-yl)methyl]-1-[(4-cyanophenyl)sulfonyl]-2-cyclopropyl-1,2,2′,3′,5′,6′-hexahydrospiro[indole-3,4′-thiopyran]-5-carboxamide 1′,1′-dioxide]	33
Cc1cccnc1CNC(=O)c1ccc2c(c1)C1(CCS(=O)(=O)CC1)C(C1CC1)N2S(=O)(=O)c1ccc(F)cc1 (single isomer, unassigned) [Example 31.2, 2-cyclopropyl-1-[(4-fluorophenyl)sulfonyl]-N-[(3-methylpyridin-2-yl)methyl]-1,2,2′,3′,5′,6′-hexahydrospiro[indole-3,4′-thiopyran]-5-carboxamide 1′,1′-dioxide]	15100
CC1N(S(=O)(=O)c2ccc(F)cc2)c2ccc(C(=O)NC(C)(C)c3ccc(F)cc3Cl)cc2C12CCS(=O)(=O)CC2 (stereo not drawn) [Example 27, N-(2-chloro-4-fluoro-α,α-dimethylbenzyl)-1-[(4-fluorophenyl)sulfonyl]-2-methyl-1,2,2′,3′,5′,6′-hexahydrospiro[indole-3,4′-thiopyran]-5-carboxamide 1′,1′-dioxide]	9020
COc1cccc(S(=O)(=O)N2c3ccc(C(=O)Nc4cccc(S(=O)(=O)N=C(N(C)C)N(C)C)c4)cc3C3(CCS(=O)(=O)CC3)C2C2CC2)c1 (single isomer, unassigned) [Example 62.2, N-(3-{[bis(dimethylamino)methylidene]sulfamoyl}phenyl)-2-cyclopropyl-1-[(3-methoxyphenyl)sulfonyl]-1,2,2′,3′,5′,6′-hexahydrospiro[indole-3,4′-thiopyran]-5-carboxamide 1′,1′-dioxide]	4.8
N#Cc1cccc(S(=O)(=O)N2c3ccc(C(=O)Nc4cncc(Cl)c4)cc3C3(CCS(=O)(=O)CC3)C2C2CC2)c1 (stereo not shown) [Example 77, N-(5-chloropyridin-3-yl)-1-[(3-cyanophenyl)sulfonyl]-2-cyclopropyl-1,2,2′,3′,5′,6′-hexahydrospiro[indole-3,4′-thiopyran]-5-carboxamide 1′,1′-dioxide]	700
O=C(NC1CCOc2ccccc21)c1ccc2c(c1)C1(CCS(=O)(=O)CC1)C(C1CC1)N2S(=O)(=O)c1ccc(F)cc1 (single isomer, unassigned) [Example 33.1, 2-cyclopropyl-N-(3,4-dihydro-2H-chromen-4-yl)-1-[(4-fluorophenyl)sulfonyl]-1,2,2′,3′,5′,6′-hexahydrospiro[indole-3,4′-thiopyran]-5-carboxamide 1′,1′-dioxide]	425
C=CCC1N(S(=O)(=O)c2ccc(F)cc2)c2ccc(C(=O)Nc3cccc(C(=O)O)c3)cc2C12CCS(=O)(=O)CC2 (stereo not shown) [Example 59, 3-[({1-[(4-fluorophenyl)sulfonyl]-1′,1′-dioxido-2-(prop-2-en-1-yl)-1,2,2′,3′,5′,6′-hexahydrospiro[indole-3,4′-thiopyran]-5-yl}carbonyl)amino]benzoic acid]	80
N#Cc1cccc(S(=O)(=O)N2c3ccc(C(=O)NCc4ncccc4C(F)(F)F)cc3C3(CCS(=O)(=O)CC3)C2C2CC2)c1 (single isomer, unassigned) [Example 79.1, 1-[(3-cyanophenyl)sulfonyl]-2-cyclopropyl-N-{[3-(trifluoromethyl)pyridin-2-yl]methyl}-1,2,2′,3′,5′,6′-hexahydrospiro[indole-3,4′-thiopyran]-5-carboxamide 1′,1′-dioxide]	54
COc1cccc(S(=O)(=O)N2c3ccc(C(=O)NCc4ccc(F)cc4Cl)cc3C3(CCS(=O)(=O)CC3)C2C2CC2)c1 (single isomer, unassigned) [Example 46.2, N-(2-chloro-4-fluorobenzyl)-2-cyclopropyl-1-[(3-methoxyphenyl)sulfonyl]-1,2,2′,3′,5′,6′-hexahydrospiro[indole-3,4′-thiopyran]-5-carboxamide 1′,1′-dioxide]	732
N#Cc1ccc(S(=O)(=O)N2c3ccc(C(=O)Nc4cncc(Cl)c4)cc3C3(CCS(=O)(=O)CC3)C2C2CC2)cc1 (single isomer, unassigned) [Example 71.2, N-(5-chloropyridin-3-yl)-1-[(4-cyanophenyl)sulfonyl]-2-cyclopropyl-1,2,2′,3′,5′,6′-hexahydrospiro[indole-3,4′-thiopyran]-5-carboxamide 1′,1′-dioxide]	1630
CC1N(S(=O)(=O)c2ccc(F)cc2)c2ccc(C(=O)NCc3ncccc3C(F)(F)F)cc2C12CCOCC2 (stereo not shown) [Example 3, 1-[(4-fluorophenyl)sulfonyl]-2-methyl-N-{[3-(trifluoromethyl)pyridin-2-yl]methyl}-1,2,2′,3′,5′,6′-hexahydrospiro[indole-3,4′-pyran]-5-carboxamide]	584
CC1N(S(=O)(=O)c2ccc(F)cc2)c2ccc(C(=O)NCc3ncccc3C(F)(F)F)cc2C12CCOCC2 (single isomer, unassigned) [Example 3.2, 1-[(4-fluorophenyl)sulfonyl]-2-methyl-N-{[3-(trifluoromethyl)pyridin-2-yl]methyl}-1,2,2′,3′,5′,6′-hexahydrospiro[indole-3,4′-pyran]-5-carboxamide]	> 20000
N#Cc1cccc(S(=O)(=O)N2c3ccc(C(=O)NCc4ccccc4Cl)cc3C3(CCS(=O)(=O)CC3)C2C2CC2)c1 (single isomer, unassigned) [Example 76.2, N-(2-chlorobenzyl)-1-[(3-cyanophenyl)sulfonyl]-2-cyclopropyl-1,2,2′,3′,5′,6′-hexahydrospiro[indole-3,4′-thiopyran]-5-carboxamide 1′,1′-dioxide]	689
